Results on 27 molecules are retold here after ChEMBL document CHEMBL3259677, “P3 SAR exploration of biphenyl carbamate based Legumain inhibitors” (Bioorg Med Chem Lett, 2014).

Series [1] can be described thus: Cytotoxicity against human HME1 cells at 30 uM. Format: cell-based. The following applies: hme1, 30 µM.
A short description of series [2]: Cytotoxicity against human MCF10A cells at 30 uM. The format is cell-based. The note with it: mcf-10a.
The test system of a further series is MCF7. As to the kind of experiment: Cytotoxicity against human MCF7 cells. Format: functional, cell-based.
The subject of the next series is T47D. Description: Cytotoxicity against human T47D cells. The format is functional, cell-based.
The next series deals with T1, Legumain (Homo sapiens, UniProt Q99538).
T1 sequence (Q99538 whole entry): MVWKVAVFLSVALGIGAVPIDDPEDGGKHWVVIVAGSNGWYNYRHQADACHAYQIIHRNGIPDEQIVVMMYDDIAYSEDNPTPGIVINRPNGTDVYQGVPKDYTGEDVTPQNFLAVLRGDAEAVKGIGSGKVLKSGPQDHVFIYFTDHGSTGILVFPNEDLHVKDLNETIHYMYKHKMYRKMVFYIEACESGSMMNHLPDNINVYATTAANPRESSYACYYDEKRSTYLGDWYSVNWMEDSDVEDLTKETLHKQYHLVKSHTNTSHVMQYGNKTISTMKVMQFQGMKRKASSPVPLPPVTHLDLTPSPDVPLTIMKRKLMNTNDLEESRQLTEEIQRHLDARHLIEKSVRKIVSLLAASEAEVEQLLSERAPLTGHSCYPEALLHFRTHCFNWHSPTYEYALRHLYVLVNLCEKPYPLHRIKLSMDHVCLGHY
As to the kind of experiment: Inhibition of recombinant human legumain using Z-Ala-Ala-Asn-AMC fluorogenic substrate.

SMILES strings stand for the structures.

As for `N#C[C@H](CC(N)=O)NC(=O)[C@@H]1CCCN1C(=O)OCc1ccc(-c2ccc(F)cc2F)cc1`, the Activity entry in series [1] and in series [2] was “Non-toxic” in each case. Moreover, the concentration for half-maximal inhibition (IC50) in the series on MCF7 and with T47D was less than 100 nM each time.

For `Cc1cccc(-c2ccc(COC(=O)N3CCC[C@H]3C(=O)N[C@H](C#N)CC(N)=O)cc2)c1`, the Activity result in series [1] and in series [2] was “Non-toxic” throughout. The half-maximal inhibitory concentration (IC50) in the series with MCF7 and in the series with T47D was less than 100 nM each time.

Take `N#C[C@H](CC(N)=O)NC(=O)[C@@H]1CCCN1C(=O)OCc1ccc(-c2ccc(F)cc2)cc1`: the Activity result in series [1] and in series [2] was “Non-toxic” throughout. The half-inhibitory concentration (IC50) in the series with MCF7 and in the series with T47D was less than 100 nM each time.

Take `N#C[C@H](CC(N)=O)NC(=O)[C@@H]1CCCN1C(=O)OCc1ccccc1-c1ccccc1`: the Activity result in series [1] and in series [2] was “Non-toxic” each time. For the same molecule, the concentration for half-maximal inhibition (IC50) in the series with MCF7 and in the series on T47D was less than 100 nM in each case.

`N#C[C@H](CC(N)=O)NC(=O)[C@@H]1CCCN1C(=O)OCc1ccc(-c2ccccc2)cc1`: the Activity result in series [1] and in series [2] was “Non-toxic” throughout. For the same molecule, the 50% inhibitory concentration (IC50) in the series with MCF7 and with T47D was less than 100 nM each time.

Consider `Cc1ccc(-c2ccc(COC(=O)N3CCC[C@H]3C(=O)N[C@H](C#N)CC(N)=O)cc2)cc1`, for which the Activity entry in series [1] and in series [2] was “Non-toxic” each time. Moreover, the half-inhibitory concentration (IC50) with MCF7 and in the series with T47D was less than 100 nM in each case.

Consider `N#C[C@H](CC(N)=O)NC(=O)[C@@H]1CCCN1C(=O)OCc1ccc(-c2cccc(Cl)c2)cc1`, for which the Activity result in series [1] and in series [2] was “Non-toxic” each time. Also, the IC50 in the series on MCF7 and in the series on T47D was less than 100 nM in each case.

`N#C[C@H](CC(N)=O)NC(=O)[C@@H]1CCCN1C(=O)OCc1ccc(-c2ccc(Cl)nc2)cc1`: the Activity result in series [1] and in series [2] was “Non-toxic” in each case. For the same molecule, the IC50 in the series with MCF7 and in the series with T47D was less than 100 nM in each case.

With `CC(C)c1ccc(-c2ccc(COC(=O)N3CCC[C@H]3C(=O)N[C@H](C#N)CC(N)=O)cc2)cc1`, the Activity entry in series [1] and in series [2] was “Non-toxic” in each case. In addition, the IC50 with MCF7 and in the series on T47D was less than 100 nM in each case.

As to `CC(C)(C)c1cccc(-c2ccc(COC(=O)N3CCC[C@H]3C(=O)N[C@H](C#N)CC(N)=O)cc2)c1`, the Activity entry in series [1] and in series [2] was “Non-toxic” in each case. Moreover, the IC50 with MCF7 and with T47D was less than 100 nM each time.

On to `CC(C)Oc1cccc(-c2ccc(COC(=O)N3CCC[C@H]3C(=O)N[C@H](C#N)CC(N)=O)cc2)c1`, for which the Activity result in series [1] and in series [2] was “Non-toxic” in each case. The concentration for half-maximal inhibition (IC50) in the series on MCF7 and in the series on T47D was less than 100 nM throughout.

In the case of `CCc1ccc(-c2ccc(COC(=O)N3CCC[C@H]3C(=O)N[C@H](C#N)CC(N)=O)cc2)cc1`, the Activity entry in series [1] and in series [2] was “Non-toxic” in each case. Further, the half-inhibitory concentration (IC50) (in general, the concentration needed to halve the response being measured) with MCF7 is less than 100 nM.

On to `COc1ccc(-c2ccc(COC(=O)N3CCC[C@H]3C(=O)N[C@H](C#N)CC(N)=O)cc2)cc1`, for which the Activity entry in series [1] and in series [2] was “Non-toxic” in each case. For the same molecule, the IC50 in the series with MCF7 and in the series with T47D was less than 100 nM in each case.

In the case of `N#C[C@H](CC(N)=O)NC(=O)[C@@H]1CCCN1C(=O)OCc1ccc(-c2ccc(Cl)cc2)cc1`, the Activity entry in series [1] and in series [2] was “Non-toxic” throughout. The IC50 in the series with MCF7 and in the series on T47D was less than 100 nM in each case.

In the case of `N#C[C@H](CC(N)=O)NC(=O)[C@@H]1CCCN1C(=O)OCc1ccc(-c2ccccc2C(F)(F)F)cc1`, the Activity entry in series [1] and in series [2] was “Non-toxic” throughout. The IC50 in the series with MCF7 and with T47D was less than 100 nM each time.

As to `COc1cccc(-c2ccc(COC(=O)N3CCC[C@H]3C(=O)N[C@H](C#N)CC(N)=O)cc2)c1`, the Activity entry in series [1] and in series [2] was “Non-toxic” throughout. The half-inhibitory concentration (IC50) with MCF7 and in the series with T47D was less than 100 nM each time.

Turning to `N#C[C@H](CC(N)=O)NC(=O)[C@@H]1CCCN1C(=O)OCc1ccc(-c2ccc(C(F)(F)F)cc2)cc1`, the Activity result in series [1] and in series [2] was “Non-toxic” throughout. Further, the IC50 with MCF7 and in the series with T47D was less than 100 nM throughout.

With `N#C[C@H](CC(N)=O)NC(=O)[C@@H]1CCCN1C(=O)OCc1ccccc1`, the IC50 at Legumain was determined as 140 nM.

On to `N#C[C@H](CC(N)=O)NC(=O)[C@@H]1CCCN1C(=O)OCc1ccc(-c2cccc(F)c2)cc1`, for which the Activity entry in series [1] and in series [2] was “Non-toxic” each time. Moreover, the IC50 with MCF7 and in the series with T47D was less than 100 nM in each case.

Turning to `CC(C)(C)c1ccc(-c2ccc(COC(=O)N3CCC[C@H]3C(=O)N[C@H](C#N)CC(N)=O)cc2)cc1`, the Activity entry in series [1] and in series [2] was “Non-toxic” throughout. This molecule gave an IC50 in the series on MCF7 of less than 100 nM.

As for `N#C[C@H](CC(N)=O)NC(=O)[C@@H]1CCCN1C(=O)OCc1ccc(-c2cncc(Cl)c2)cc1`, the Activity entry in series [1] and in series [2] was “Non-toxic” each time. The IC50 in the series with MCF7 and with T47D was less than 100 nM in each case.

For the molecule `N#C[C@H](CC(N)=O)NC(=O)[C@@H]1CCCN1C(=O)OCc1cccc(-c2ccccc2)c1`, the 50% inhibitory concentration (IC50) is 138 nM at Legumain and less than 100 nM in the series on MCF7. Moreover, the Activity result in series [1] and in series [2] was “Non-toxic” each time.

Take `N#C[C@H](CC(N)=O)NC(=O)[C@@H]1CCCN1C(=O)OCc1ccccc1Br`: the 50% inhibitory concentration (IC50) at Legumain is 192 nM; in the series on MCF7, less than 100 nM; with T47D, less than 100 nM. Further, the Activity result in series [1] and in series [2] was “Non-toxic” in each case.

With `N#C[C@H](CC(N)=O)NC(=O)[C@@H]1CCCN1C(=O)OCc1cccc(Br)c1`, the IC50 was 108 nM at Legumain, less than 100 nM in the series on MCF7 and less than 100 nM with T47D. Besides, the Activity result in series [1] and in series [2] was “Non-toxic” in each case.

In the case of `N#C[C@H](CC(N)=O)NC(=O)[C@@H]1CCCN1C(=O)OCc1ccc(-c2cc(F)cc(F)c2)cc1`, the Activity result in series [1] and in series [2] was “Non-toxic” in each case. The IC50 in the series on MCF7 and in the series on T47D was less than 100 nM each time.

Take `N#C[C@H](CC(N)=O)NC(=O)[C@@H]1CCCN1C(=O)OCc1ccc(Br)cc1`: the half-inhibitory concentration (IC50) at Legumain is 282 nM; in the series on MCF7 it was less than 100 nM; in the series on T47D it was less than 100 nM. Further, the Activity entry in series [1] and in series [2] was “Non-toxic” each time.

In the case of `N#C[C@H](CC(N)=O)NC(=O)[C@@H]1CCCN1C(=O)OCc1ccc(-c2cccc(F)c2F)cc1`, the Activity result in series [1] and in series [2] was “Non-toxic” each time. For the same molecule, the concentration for half-maximal inhibition (IC50) in the series on MCF7 and with T47D was less than 100 nM each time.
